The values below come from PubChem BioAssay (NCI).

Among the test systems are NCI/ADR-RES ovarian; SK-MEL-28 melanoma; NCI-H522 lung; 786-0 renal; RPMI-8226 leukemia; ACHN renal; HOP-62 NSCLC.
Assay in all cases: growth of human tumour cells (NCI), 48 h

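Method: 48-hour compound exposure of cells in 96-well plates, five concentrations, linear interpolation of endpoints. TGI denotes the concentration required for complete inhibition of growth.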

As for `Nc1ccccc1OCCCOc1ccccc1N`, the TGI in the test with NCI/ADR-RES ovarian, in the test on SK-MEL-28 melanoma, in the test with NCI-H522 lung, in the test on 786-0 renal, with RPMI-8226 leukemia and with ACHN renal was more than 100 µM throughout. The compound also displayed a TGI in the test on HOP-62 NSCLC of more than 100 µM.

As to `CCOC1NC(/N=C/c2ccc(OC)cc2)=C(C#N)C1C#N` (stereo unspecified), the TGI in the test on NCI/ADR-RES ovarian is more than 100 µM; in the test with SK-MEL-28 melanoma it was more than 100 µM; with NCI-H522 lung it was 47.8 µM; with 786-0 renal it was more than 100 µM; in the test on RPMI-8226 leukemia, more than 100 µM; in the test with ACHN renal, more than 100 µM. For the same compound, the TGI in the test on HOP-62 NSCLC is more than 100 µM.

Turning to `CCN(CC)c1ccc2cc(C(N)=O)c(=Nc3ccc(F)cc3)oc2c1`, the TGI in the test with NCI/ADR-RES ovarian, in the test on SK-MEL-28 melanoma, in the test with NCI-H522 lung, in the test with 786-0 renal, in the test with RPMI-8226 leukemia and in the test with ACHN renal was more than 100 µM throughout. In the test with HOP-62 NSCLC, this compound displayed a TGI of more than 100 µM.

As to `O=C1C=C(O)c2c(O)ccc(O)c2C1=O`, the TGI with NCI/ADR-RES ovarian, in the test on SK-MEL-28 melanoma, with NCI-H522 lung, in the test on 786-0 renal, in the test with RPMI-8226 leukemia and in the test with ACHN renal was more than 100 µM throughout. In the test on HOP-62 NSCLC, the TGI is more than 100 µM.

Turning to `O=C1CCCCN1C(=O)c1ccc([N+](=O)[O-])cc1`, the TGI with NCI/ADR-RES ovarian, in the test on SK-MEL-28 melanoma, in the test on NCI-H522 lung, in the test on 786-0 renal, with RPMI-8226 leukemia and with ACHN renal was more than 100 µM in each case. For the same compound, the TGI in the test on HOP-62 NSCLC is more than 100 µM.

In the case of `NCCS(=O)(=O)O`, the TGI with NCI/ADR-RES ovarian, with SK-MEL-28 melanoma, in the test on NCI-H522 lung, in the test on 786-0 renal, in the test with RPMI-8226 leukemia and in the test with ACHN renal was more than 100 µM each time. Further, the TGI in the test on HOP-62 NSCLC was more than 100 µM.

As to `C[N+]1([O-])[C@H]2CC(OC(=O)[C@H](CO)c3ccccc3)C[C@H]1[C@H]1O[C@H]12` (stereo partly specified), the TGI with NCI/ADR-RES ovarian, in the test on SK-MEL-28 melanoma, in the test on NCI-H522 lung, with 786-0 renal, in the test on RPMI-8226 leukemia and with ACHN renal was more than 100 µM each time. For the same compound, the TGI in the test with HOP-62 NSCLC is more than 100 µM.

Turning to `COC12C=CC(CC1)C(C)(C)C2OS(C)(=O)=O` (stereo unspecified), the TGI in the test on NCI/ADR-RES ovarian, with SK-MEL-28 melanoma, with NCI-H522 lung, with 786-0 renal, in the test with RPMI-8226 leukemia and in the test on ACHN renal was more than 100 µM each time. In the test on HOP-62 NSCLC, the TGI is more than 100 µM.

As to `O=C(/C=C/c1ccccc1)Oc1cccc(Br)c1`, the TGI in the test with NCI/ADR-RES ovarian was more than 100 µM; in the test with SK-MEL-28 melanoma, more than 100 µM; in the test on NCI-H522 lung, 29.2 µM; with 786-0 renal, more than 100 µM; with RPMI-8226 leukemia it was 40.2 µM; in the test on ACHN renal, more than 100 µM. The compound also displayed a TGI with HOP-62 NSCLC of more than 100 µM.

`CN1C=COC1N=C1CCCCC1` (stereo unspecified): the TGI in the test on NCI/ADR-RES ovarian, in the test on SK-MEL-28 melanoma, in the test with NCI-H522 lung, in the test on 786-0 renal, in the test with RPMI-8226 leukemia and in the test on ACHN renal was more than 100 µM each time. The same compound gave a TGI in the test with HOP-62 NSCLC of more than 100 µM.

On to `O=S1(=O)OCCCOS(=O)(=O)C1(Br)Br`, for which the TGI with NCI/ADR-RES ovarian, in the test with SK-MEL-28 melanoma, in the test with NCI-H522 lung, in the test on 786-0 renal, in the test with RPMI-8226 leukemia and in the test on ACHN renal was more than 100 µM throughout. In addition, the TGI with HOP-62 NSCLC is more than 100 µM.

As to `C[C@@]12C[C@@H](c3ccccc3O1)N1Cc3ccccc3CSC1=N2`, the TGI in the test with NCI/ADR-RES ovarian, with SK-MEL-28 melanoma, in the test with NCI-H522 lung, in the test with 786-0 renal, in the test on RPMI-8226 leukemia and in the test on ACHN renal was more than 100 µM each time. The compound further showed a TGI in the test on HOP-62 NSCLC of more than 100 µM.

Take `COc1cc([C@@H]2c3cc4c(cc3[C@@H](c3c(O)cc(O)c5c3O[C@H](c3ccc(O)c(O)c3)[C@H](OC(=O)c3cc(O)c(O)c(O)c3)C5)[C@H]3COC(=O)[C@H]23)OCO4)cc(OC)c1O`: the TGI with NCI/ADR-RES ovarian, with SK-MEL-28 melanoma, in the test on NCI-H522 lung, in the test with 786-0 renal, in the test with RPMI-8226 leukemia and in the test on ACHN renal was more than 100 µM in each case. The TGI in the test with HOP-62 NSCLC was more than 100 µM.

`O=C1O[C@H]2C3C4CCC(C4[C@@H]2I)[C@H]13` (stereo partly specified): the TGI in the test with NCI/ADR-RES ovarian, in the test with SK-MEL-28 melanoma, in the test on NCI-H522 lung, with 786-0 renal, in the test on RPMI-8226 leukemia and in the test with ACHN renal was more than 100 µM throughout. For the same compound, the TGI in the test on HOP-62 NSCLC was more than 100 µM.

With `N#Cc1c(N2CCCC2)nsc1Nc1ccc(F)cc1`, the TGI in the test with NCI/ADR-RES ovarian, in the test with SK-MEL-28 melanoma, with NCI-H522 lung, with 786-0 renal, in the test with RPMI-8226 leukemia and in the test on ACHN renal was more than 100 µM each time. Also, the TGI with HOP-62 NSCLC is more than 100 µM.

As for `OC(C1CCCCCCCCCC1)C(O)C1CCCCCCCCCC1` (stereo unspecified), the TGI with NCI/ADR-RES ovarian, in the test with SK-MEL-28 melanoma, in the test on NCI-H522 lung, with 786-0 renal, in the test on RPMI-8226 leukemia and with ACHN renal was more than 100 µM in each case. In the test with HOP-62 NSCLC, this compound had a TGI of more than 100 µM.

For the compound `O=S(c1ccc(Cl)cc1)c1ccccc1C1=NCCN1` (stereo unspecified), the TGI in the test on NCI/ADR-RES ovarian, in the test on SK-MEL-28 melanoma, in the test with NCI-H522 lung, in the test on 786-0 renal, in the test with RPMI-8226 leukemia and in the test with ACHN renal was more than 100 µM in each case. In the test with HOP-62 NSCLC, this compound showed a TGI of more than 100 µM.

Regarding `N#Cc1ccc2[nH]c3c(c2c1)CC(=O)Nc1ccccc1-3`, the TGI in the test with NCI/ADR-RES ovarian, with SK-MEL-28 melanoma, in the test on NCI-H522 lung, in the test on 786-0 renal, in the test on RPMI-8226 leukemia and in the test with ACHN renal was more than 100 µM throughout. Besides, in the test with HOP-62 NSCLC, the TGI is more than 100 µM.
